This test deals with T1, BRD9 (Homo sapiens, UniProt Q9H8M2).
T1 sequence (Q9H8M2 1-597): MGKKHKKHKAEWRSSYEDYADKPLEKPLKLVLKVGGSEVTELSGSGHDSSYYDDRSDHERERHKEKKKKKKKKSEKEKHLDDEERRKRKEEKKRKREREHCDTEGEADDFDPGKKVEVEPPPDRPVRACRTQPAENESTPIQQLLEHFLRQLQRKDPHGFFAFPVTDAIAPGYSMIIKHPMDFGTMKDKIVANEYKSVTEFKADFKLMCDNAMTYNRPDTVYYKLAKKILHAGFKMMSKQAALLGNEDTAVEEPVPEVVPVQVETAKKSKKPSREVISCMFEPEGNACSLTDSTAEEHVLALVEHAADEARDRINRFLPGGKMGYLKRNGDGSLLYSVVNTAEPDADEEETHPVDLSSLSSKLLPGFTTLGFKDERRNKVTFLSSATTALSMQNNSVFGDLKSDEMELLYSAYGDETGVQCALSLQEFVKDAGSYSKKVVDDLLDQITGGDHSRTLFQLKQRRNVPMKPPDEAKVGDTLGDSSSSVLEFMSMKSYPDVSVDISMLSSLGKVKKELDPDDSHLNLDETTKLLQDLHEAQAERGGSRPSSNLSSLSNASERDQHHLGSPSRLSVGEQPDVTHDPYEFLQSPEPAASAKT
As to the kind of experiment: Degradation of BRD9 (IF), immunofluorescence in MV4-11 cells, 24 hours (Assay Protocol 2). The following applies: BRD9 degradation; for DC50: Assay protocol 2, read-out: DC50; for Dmax: MV4-11, Assay protocol 2, read-out: Dmax. The class given is cell-based. Set-up: A suspension of MV4-11 cells (ATCC CRL-9591) was prepared; host or cells: MV4-11. Summed up: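 % BRD9 remaining, scaled between DMSO (high) and 100 nM CFT-8634 (low) control wells, derives from mean Alexa 647 contrast in central nuclei by high-content imaging. MV4-11 cells had 24 h compound exposure at 37° C. before PFA fixation, Triton permeabilisation and anti-BRD9 E4Q3F immunostaining.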

Take `COc1cc(-c2cn(C)c(=O)c(C)c2C)cc(OC)c1CN1CCN(Cc2cccc3c2CCN(C(=O)/C(C#N)=C/C2(C)CCCCC2)C3C)C2(CC2)C1` (mixture of isomers) [Compound B143, (E/Z)-2-(5-((7-(2,6-dimethoxy-4-(1,4,5-trimethyl-6-oxo-1,6-dihydropyridin-3-yl)benzyl)-4,7-diazaspiro[2.5]octan-4-yl)methyl)-1-methyl-1,2,3,4-tetrahydroisoquinoline-2-carbonyl)-3-(1-methylcyclohexyl)acrylonitrile]: the half-maximal degradation concentration (DC50) was in the range of 10 to 25 nM and the Dmax was in the range of 70 to 75%.
Taken in the same sequence, the figures for `COc1cc(-c2cn(C)c(=O)c(C)c2C)cc(OC)c1CN1CCN(Cc2cccc3c2CCN(C(=O)/C(C#N)=C/C2(CF)CC2)C3C)C2(CC2)C1` (mixture of isomers) [Compound B144, (E/Z)-2-(5-((7-(2,6-dimethoxy-4-(1,4,5-trimethyl-6-oxo-1,6-dihydropyridin-3-yl)benzyl)-4,7-diazaspiro[2.5]octan-4-yl)methyl)-1-methyl-1,2,3,4-tetrahydroisoquinoline-2-carbonyl)-3-(1-(fluoromethyl)cyclopropyl)acrylonitrile] were below 1.25 nM and above 75%.
Taken in the same sequence, the figures for `COc1cc(-c2cn(C)c(=O)c(C)c2C)cc(OC)c1CN1CCN(Cc2cccc3c2CCN(C(=O)/C(C#N)=C/C2(C)CCCC2)C3C)C2(CC2)C1` (mixture of isomers) [Compound B145, (E/Z)-2-(5-((7-(2,6-dimethoxy-4-(1,4,5-trimethyl-6-oxo-1,6-dihydropyridin-3-yl)benzyl)-4,7-diazaspiro[2.5]octan-4-yl)methyl)-1-methyl-1,2,3,4-tetrahydroisoquinoline-2-carbonyl)-3-(1-methylcyclopentyl)acrylonitrile] were below 1.25 nM and above 75%.
As to `COc1cc(-c2cn(C)c(=O)c(C)c2C)ccc1CN1CCN(Cc2cccc3c2CCN(C(=O)/C(C#N)=C/C(C)(C)C)C3C)C2(CC2)C1` (mixture of isomers) [Compound B147, (E/Z)-2-(5-((7-(2-methoxy-4-(1,4,5-trimethyl-6-oxo-1,6-dihydropyridin-3-yl)benzyl)-4,7-diazaspiro[2.5]octan-4-yl)methyl)-1-methyl-1,2,3,4-tetrahydroisoquinoline-2-carbonyl)-4,4-dimethylpent-2-enenitrile], the 50% degradation concentration (DC50) is 1.25 to 10 nM and the Dmax is above 75%.
With `COc1cc(-c2cn(C)c(=O)c(C)c2C)cc(OC)c1CN1CCN(Cc2cccc3c2CCN(C(=O)/C(C#N)=C/C(C)(C)C)C3C)C2CC21` (mixture of isomers) [Compound B148, (E/Z)-2-(5-((5-(2,6-dimethoxy-4-(1,4,5-trimethyl-6-oxo-1,6-dihydropyridin-3-yl)benzyl)-2,5-diazabicyclo[4.1.0]heptan-2-yl)methyl)-1-methyl-1,2,3,4-tetrahydroisoquinoline-2-carbonyl)-4,4-dimethylpent-2-enenitrile], the half-maximal degradation concentration (DC50) was 1.25 to 10 nM and the Dmax was in the range of 40 to 70%.
Taken in the same sequence, the figures for `COc1cc(-c2cn(C)c(=O)c(C)c2C)cc(OC)c1CN1CCN(Cc2cccc3c2CCN(C(=O)/C(C#N)=C/C2(C)CCC2)C3C)C2(CC2)C1` (mixture of isomers) [Compound B149, (E/Z)-2-(5-((7-(2,6-dimethoxy-4-(1,4,5-trimethyl-6-oxo-1,6-dihydropyridin-3-yl)benzyl)-4,7-diazaspiro[2.5]octan-4-yl)methyl)-1-methyl-1,2,3,4-tetrahydroisoquinoline-2-carbonyl)-3-(1-methylcyclobutyl)acrylonitrile] were below 1.25 nM and above 75%.
Taken in the same sequence, the figures for `COc1cc(-c2cn(C)c(=O)c(C)c2C)cc(OC)c1CN1CCN(Cc2cccc3c2CCN(C(=O)/C(C#N)=C/C(C)(C)C(F)(F)F)C3C)C2(CC2)C1` (mixture of isomers) [Compound B152, (E/Z)-2-(5-((7-(2,6-dimethoxy-4-(1,4,5-trimethyl-6-oxo-1,6-dihydropyridin-3-yl)benzyl)-4,7-diazaspiro[2.5]octan-4-yl)methyl)-1-methyl-1,2,3,4-tetrahydroisoquinoline-2-carbonyl)-5,5,5-trifluoro-4,4-dimethylpent-2-enenitrile] were 1.25 to 10 nM and above 75%.
Taken in the same sequence, the figures for `COc1cc(-c2cn(C)c(=O)c(C)c2C)cc(OC)c1CN1CCN(Cc2cccc3c2CCN(C(=O)/C(C#N)=C/C2(C(F)(F)F)CC2)C3C)C2(CC2)C1` (mixture of isomers) [Compound B153, (E/Z)-2-[5-[[7-[[2,6-dimethoxy-4-(1,4,5-trimethyl-6-oxo-3-pyridyl)phenyl]methyl]-4,7-diazaspiro[2.5]octan-4-yl]methyl]-1-methyl-3,4-dihydro-1H-isoquinoline-2-carbonyl]-3-[1-(trifluoromethyl)cyclopropyl]prop-2-enenitrile] were below 1.25 nM and above 75%.
Turning to `COc1cc(-c2cn(C)c(=O)c(C)c2C)cc(OC)c1CN1CCN(CCc2cccc3c2CCN(C(=O)/C(C#N)=C/C(C)(C)C)C3C)C2(CC2)C1` (mixture of isomers) [Compound B154], the DC50 was 10 to 25 nM and the Dmax was in the range of 40 to 70%.
Taken in the same sequence, the figures for `COc1cc(-c2cn(C)c(=O)c(C)c2C)cc(OC)c1CN1CCN(Cc2cccc3c2CCN(C(=O)/C(C#N)=C/C(C)(C)C)C3C)C(=O)C1` (mixture of isomers) [Compound B155, (E/Z)-2-(5-((4-(2,6-dimethoxy-4-(1,4,5-trimethyl-8-oxo-1,6-dihydropyridin-3-yl)benzyl)-2-oxopiperazin-1-yl)methyl)-1-methyl-1,2,3,4-tetrahydroisoquinoline-2-carbonyl)-4,4-dimethylpent-2-enenitrile] were 25 to 1000 nM and 40 to 70%.
Taken in the same sequence, the figures for `COc1cc(-c2cn(C)c(=O)c(C)c2C)cc(OC)c1CN1CCC(Cc2cccc3c2CCN(C(=O)/C(C#N)=C/C(C)(C)C)C3C)CC1` (mixture of isomers) [Compound B156, (E/Z)-2-(5-((1-(2,6-dimethoxy-4-(1,4,5-trimethyl-6-oxo-1,6-dihydropyridin-3-yl)benzyl)piperidin-4-yl)methyl)-1-methyl-1,2,3,4-tetrahydroisoquinoline-2-carbonyl)-4,4-dimethylpent-2-enenitrile] were 1.25 to 10 nM and 40 to 70%.
In the case of `COc1cc(-c2cn(C)c(=O)c3[nH]ncc23)cc(OC)c1CN1CCN(Cc2cccc3c2CCN(C(=O)/C(C#N)=C/C(C)(C)C)C3C)CC12CC2` (mixture of isomers) [Compound B158, (E/Z)-2-(5-((4-(2,6-dimethoxy-4-(6-methyl-7-oxo-6,7-dihydro-1H-pyrazolo[3,4-c]pyridin-4-yl)benzyl)-4,7-diazaspiro[2.5]octan-7-yl)methyl)-1-methyl-1,2,3,4-tetrahydroisoquinoline-2-carbonyl)-4,4-dimethylpent-2-enenitrile], the DC50 is below 1.25 nM and the Dmax is above 75%.
Consider `COc1cc(-c2cn(C)c(=O)c(C)c2C)cc(OC)c1CN1CCN(Cc2cccc3c2CCN(C(=O)/C(C#N)=C/C(C)(C)C)C3C)CC1(C)C` (mixture of isomers) [Compound B159, (E/Z)-2-(5-((4-(2,6-dimethoxy-4-(1,4,5-trimethyl-6-oxo-1,6-dihydropyridin-3-yl)benzyl)-3,3-dimethylpiperazin-1-yl)methyl)-1-methyl-1,2,3,4-tetrahydroisoquinoline-2-carbonyl)-4,4-dimethylpent-2-enenitrile], for which the DC50 was below 1.25 nM and the Dmax lay within 40 to 70%.
As to `COc1cc(-c2cn(C)c(=O)c(C)c2C)cc(OC)c1CN1CCN(Cc2cccc3c2CCN(C(=O)/C(C#N)=C/C2(C(F)(F)F)CCC2)C3C)C2(CC2)C1` (mixture of isomers) [Compound B160, (E/Z)-2-[5-[[7-[[2,6-dimethoxy-4-(1,4,5-trimethyl-6-oxo-3-pyridyl)phenyl]methyl]-4,7-diazaspiro[2.5]octan-4-yl]methyl]-1-methyl-3,4-dihydro-1H-isoquinoline-2-carbonyl]-3-[1-(trifluoromethyl)cyclobutyl]prop-2-enenitrile], the half-maximal degradation concentration (DC50) fell in the range of 1.25 to 10 nM and the Dmax was above 75%.
Taken in the same sequence, the figures for `COc1cc(-c2cn(C)c(=O)c(C)c2C)cc(OC)c1CN1CCN(Cc2cccc3c2CCN(C(=O)/C(C#N)=C\C24CC(C)(C2)C4)C3C)C2(CC2)C1` (mixture of isomers) [Compound B161, (E/Z)-2-(5-((7-(2,6-dimethoxy-4-(1,4,5-trimethyl-6-oxo-1,6-dihydropyridin-3-yl)benzyl)-4,7-diazaspiro[2.5]octan-4-yl)methyl)-1-methyl-1,2,3,4-tetrahydroisoquinoline-2-carbonyl)-3-(3-methylbicyclo[1.1.1]pentan-1-yl)acrylonitrile] were below 1.25 nM and above 75%.

What is called DC50 is the midpoint of the concentration-degradation curve. What is called Dmax is the greatest extent of degradation seen.
